Assay results: paper PMC6010013, “Synthesis, physiochemical property and antimicrobial activity of novel quaternary ammonium salts” (Journal of Enzyme Inhibition and Medicinal Chemistry, 2017)

Columns and labels:
[1] = test system: Aspergillus niger; test: MIC, broth tube dilution; assay type: cell-based; conditions: 28 ℃; for MIC: 72 h, read-out: Minimal inhibitory concentration (MIC)
Excerpt: (§1) In this paper, antimicrobial activities of 24 QASs were detected by quantitative tests. […] Benzalkonium chloride (BZK) and chlorhexidine acetate (CA) was selected as positive controls. Representative compound POT-C12QAS (2) which synthesised and evaluated in previous work was also taken as a reference compound in MIC, MBC and cytotoxicity tests. […]
(§2) agriculture were used as target pathogens in this study, including three strains of Gram-positive bacteria (S. Aureus, α-H-tococcus, β-H-tococcus), three strains of Gram-negative bacteria (E. coli, P. aeruginosa, Proteus vulgaris) and four strains of fungi (Canidia albicans, Cytospora mandshurica, Physalospora piricola, Aspergillus niger). The antimicrobial tests were assayed, according to standard CLSI methods for antimicrobial dilution susceptibility tests to measure the minimum inhibitory concentration (MIC) and minimum bactericidal concentration (MBC)2.
(§3) A broth tube dilution method was followed to determine the MIC values for all the screened compounds against the micro-organisms, and for comparison benzalkonium chloride (BZK) and chlorhexidine acetate (CA) was used as a reference. For sample preparation, each of the test compounds and reference were dissolved in DMSO or sterile water at a concentration of 1600 μg/mL, and further dilutions of the compounds and reference in culture medium MHB (Muller-Hinton Broth) were prepared at the required quantities of 400, 200, 100 etc., down to 0.39 μg/mL. Bacterial strains and fungal strains were maintained on MHA (Muller-Hinton Agar) medium at 37℃ or 28 ℃ for 12 h or 72h, respectively. The microbial inocula were prepared by suspension in 10 mL of culture medium for colonies from culture on MHA. The cell density of each inoculum was adjusted in culture medium of a 0.5 McFarland standard (1-2×10^8 CFU/mL). The final amount applied was 10^5 CFU/mL for bacteria and fungi. The microbial inocula were added to the twofold diluted samples. One growth control tube was prepared […] the addition of the compound and one blank tube was prepared without the addition of the microorganism. MIC values were read after incubation at 37℃ or 28 ℃ for bacterial and fungal strains, respectively. After 12 h or 72h, the last tube with no growth of micro-organisms was recorded to represent the MIC value expressed in μg/ml. All experiments were carried out three times. […]

[2] = test system: Canidia albicans; test: MIC, broth tube dilution; assay type: cell-based; conditions: 28 ℃; for MIC: 72 h, read-out: Minimal inhibitory concentration (MIC)
Excerpt: as §1, §2, §3

[3] = test system: Cytospora mandshurica; test: MIC, broth tube dilution; assay type: cell-based; conditions: 28 ℃; for MIC: Cytospora, 72 h, read-out: Minimal inhibitory concentration (MIC)
Excerpt: as §1, §2, §3

[4] = test system: E. coli; test: MIC, broth tube dilution; assay type: cell-based; conditions: 12 h, 37℃; for MIC: Escherichia coli, read-out: Minimal inhibitory concentration (MIC)
Excerpt: as §1, §2, §3

[5] = test system: P. aeruginosa; test: MIC, broth tube dilution; assay type: cell-based; conditions: 12 h, 37℃; for MIC: Pseudomonas aeruginosa, read-out: Minimal inhibitory concentration (MIC)
Excerpt: as §1, §2, §3

[6] = test system: Physalospora piricola; test: MIC, broth tube dilution; assay type: cell-based; conditions: 28 ℃; for MIC: 72 h, read-out: Minimal inhibitory concentration (MIC)
Excerpt: as §1, §2, §3

[7] = test system: Proteus vulgaris; test: MIC, broth tube dilution; assay type: cell-based; conditions: 12 h, 37℃; for MIC: read-out: Minimal inhibitory concentration (MIC)
Excerpt: as §1, §2, §3

[8] = test system: S. aureus; test: MIC, broth tube dilution; assay type: cell-based; conditions: 12 h, 37℃; for MIC: Staphylococcus aureus, read-out: Minimal inhibitory concentration (MIC)
Excerpt: as §1, §2, §3

[9] = test system: α-H-tococcus; test: MIC, broth tube dilution; assay type: cell-based; conditions: 12 h, 37℃; for MIC: read-out: Minimal inhibitory concentration (MIC)
Excerpt: as §1, §2, §3

[10] = test system: β-H-tococcus; test: MIC, broth tube dilution; assay type: cell-based; conditions: 12 h, 37℃; for MIC: read-out: Minimal inhibitory concentration (MIC)
Excerpt: as §1, §2, §3

[11] = test system: Aspergillus niger; test: MBC, agar plating of dilutions without growth; assay type: cell-based; conditions: 99.9% bactericidal; for MBC: read-out: Minimal bactericidal concentration (MBC)
Excerpt: as §1, §2, §3
(§4) was placed on agar plates in triplicate, and incubated at 37℃ or 28 ℃ for 12 h or 72h. The number of colonies on each plate was read, and the MBC was determined as the lowest concentration that achieved a 99.9% bactericidal in the agar plate.

[12] = test system: Canidia albicans; test: MBC, agar plating of dilutions without growth; assay type: cell-based; conditions: 99.9% bactericidal; for MBC: read-out: Minimal bactericidal concentration (MBC)
Excerpt: as §1, §2, §3, §4

[13] = test system: Cytospora mandshurica; test: MBC, agar plating of dilutions without growth; assay type: cell-based; conditions: 99.9% bactericidal; for MBC: Cytospora, read-out: Minimal bactericidal concentration (MBC)
Excerpt: as §1, §2, §3, §4

[14] = test system: E. coli; test: MBC, agar plating of dilutions without growth; assay type: cell-based; conditions: 99.9% bactericidal; for MBC: Escherichia coli, read-out: Minimal bactericidal concentration (MBC)
Excerpt: as §1, §2, §3, §4

[15] = test system: P. aeruginosa; test: MBC, agar plating of dilutions without growth; assay type: cell-based; conditions: 99.9% bactericidal; for MBC: Pseudomonas aeruginosa, read-out: Minimal bactericidal concentration (MBC)
Excerpt: as §1, §2, §3, §4

[16] = test system: Physalospora piricola; test: MBC, agar plating of dilutions without growth; assay type: cell-based; conditions: 99.9% bactericidal; for MBC: read-out: Minimal bactericidal concentration (MBC)
Excerpt: as §1, §2, §3, §4

[17] = test system: Proteus vulgaris; test: MBC, agar plating of dilutions without growth; assay type: cell-based; conditions: 99.9% bactericidal; for MBC: read-out: Minimal bactericidal concentration (MBC)
Excerpt: as §1, §2, §3, §4

[18] = test system: S. aureus; test: MBC, agar plating of dilutions without growth; assay type: cell-based; conditions: 99.9% bactericidal; for MBC: Staphylococcus aureus, read-out: Minimal bactericidal concentration (MBC)
Excerpt: as §1, §2, §3, §4

[19] = test system: α-H-tococcus; test: MBC, agar plating of dilutions without growth; assay type: cell-based; conditions: 99.9% bactericidal; for MBC: read-out: Minimal bactericidal concentration (MBC)
Excerpt: as §1, §2, §3, §4

[20] = Cytotoxicity, MTT assay; assay type: cell-based, human; conditions: human, MTT, 24 h
Protocol: These six series of antimicrobial compounds may be applied to daily or clinical disinfectants for unbroken skin and trauma, or agricultural fungicides alternatively. Thus, their cytotoxicity for skin or body tissues are crucial. In this study, the cytotoxicity of target compounds was evaluated for human immortalised epidermal (HaCat) and human normal liver (LO2) cell line using MTT assay. […] The IC50 values of 5a, 6a, 10a, 16a, 16 b were about more than 50 μg/mL for LO2 and HaCat.
Cytotoxicity Testing with MTT Method
Human immortalized epidermal cells (HaCat) line were cultured in Dulbecco’s modified Eagle’s medium containing 10% fetal bovine serum, 1% penicillin, and 1% streptomycin at 37°C in a 5% CO2/95% air incubator MCO-15AC (SANYO). Human normal liver cells (LO2) line were cultured in Roswell Park Memorial Institute medium containing 10% fetal bovine serum, 1% penicillin, and 1% streptomycin at 37°C in a 5% CO2/95% air incubator MCO-15AC (SANYO). HaCat or LO2 cells in 96-well plate were adjusted to 1.0 × 10^5 cells mL-1 and cells were passed and cell supernatant was pour out before plating on glass slide at 37°C, 5% CO2 for 24 h. Cells were pretreated with 100 μL QAS for 24 h and cell supernatant with QAS was pour out and washed with PBS buffer system. Then, the cells were treated with the MTT solution (MTT, 3-(4,5-dimethythiazol-2-yl)-2,5-diphenyl-tetrazolium bromide, 20 μL, 5 mg/mL) for 4 h. The dark blue formazan crystal formed in the intact cells was solubilized with dimethyl sulfoxide, and absorbance at 570 nm was measured with a microplate reader (Multiskan MK3-Thermo Labsystems, USA). The results were expressed as percentage of the control value from the normal cells without treatments of QAS. […]

[21] = LO2 human normal liver cells, LO2 cells

## C[N+](CCO)(CCO)CCCCCCCCCCSc1nnc(-c2ccc(F)cc2)o1 [Compound 5c]
[1]
  MIC: 25 µg/mL
[2]
  MIC: 25 µg/mL
[3]
  MIC: 12.5 µg/mL
[4]
  MIC: 25 µg/mL
[5]
  MIC: 50 µg/mL
[6]
  MIC: 3.12 µg/mL
[7]
  MIC: 50 µg/mL
[8]
  MIC: 25 µg/mL
[9]
  MIC: 12.5 µg/mL
[10]
  MIC: 6.25 µg/mL
[11]
  MBC: 25 µg/mL
[12]
  MBC: 25 µg/mL
[13]
  MBC: 12.5 µg/mL
[14]
  MBC: 50 µg/mL
[15]
  MBC: 50 µg/mL
[16]
  MBC: 6.25 µg/mL
[17]
  MBC: 50 µg/mL
[18]
  MBC: 25 µg/mL
[19]
  MBC: 12.5 µg/mL
[20]; HaCat cells
  IC50 at 24 h: 19.4 ± 1.23 µg/mL
[20]; [21]
  IC50 at 24 h: 23.9 ± 1.68 µg/mL

## C[N+](CCO)(CCO)CCCCCCCCCCCCSc1nnc(-c2ccc(C(F)(F)F)cc2)o1.[Br-] [Compound 6d]
[1]
  MIC: 6.25 µg/mL
[2]
  MIC: 12.5 µg/mL
[3]
  MIC: 6.25 µg/mL
[4]
  MIC: 25 µg/mL
[5]
  MIC: 50 µg/mL
[6]
  MIC: 1.56 µg/mL
[7]
  MIC: 25 µg/mL
[8]
  MIC: 6.25 µg/mL
[9]
  MIC: 6.25 µg/mL
[10]
  MIC: 3.12 µg/mL
[11]
  MBC: 6.25 µg/mL
[12]
  MBC: 12.5 µg/mL
[13]
  MBC: 6.25 µg/mL
[14]
  MBC: 25 µg/mL
[15]
  MBC: 50 µg/mL
[16]
  MBC: 1.56 µg/mL
[17]
  MBC: 25 µg/mL
[18]
  MBC: 12.5 µg/mL
[19]
  MBC: 6.25 µg/mL
[20]; HaCat human immortalised epidermal cells, HaCat cells
  IC50 at 24 h: 5.25 ± 0.37 µg/mL
[20]; [21]
  IC50 at 24 h: 5.86 ± 0.61 µg/mL

## Benzalkonium chloride [BZK, reference compound]
[1]; 72h
  Minimal inhibitory concentration (MIC): 3.125 µg/mL
[2]; 72h
  Minimal inhibitory concentration (MIC): 12.5 µg/mL
[3]; 72h
  Minimal inhibitory concentration (MIC): 6.25 µg/mL
[4]
  Minimal inhibitory concentration (MIC): 25 µg/mL
[5]
  Minimal inhibitory concentration (MIC): 25 µg/mL
[6]; 72h
  Minimal inhibitory concentration (MIC): 3.125 µg/mL
[7]
  Minimal inhibitory concentration (MIC): 25 µg/mL
[8]
  Minimal inhibitory concentration (MIC): 3.125 µg/mL
[9]
  Minimal inhibitory concentration (MIC): 3.125 µg/mL
[10]
  Minimal inhibitory concentration (MIC): 1.56 µg/mL
[11]
  Minimal bactericidal concentration (MBC): 6.25 µg/mL
[12]
  Minimal bactericidal concentration (MBC): 25 µg/mL
[13]
  Minimal bactericidal concentration (MBC): 6.25 µg/mL
[14]
  Minimal bactericidal concentration (MBC): 25 µg/mL
[15]
  Minimal bactericidal concentration (MBC): 25 µg/mL
[16]
  Minimal bactericidal concentration (MBC): 3.125 µg/mL
[17]
  Minimal bactericidal concentration (MBC): 25 µg/mL
[18]
  Minimal bactericidal concentration (MBC): 3.125 µg/mL
[19]
  Minimal bactericidal concentration (MBC): 3.125 µg/mL

## [H]/N=C(\N/C(=N/[H])NCCCCCCNC(=N)NC(=N)Nc1ccc(Cl)cc1)Nc1ccc(Cl)cc1 [CA, chlorhexidine acetate, reference compound]
[1]
  MIC: 3.12 µg/mL
[2]
  MIC: 12.5 µg/mL
[3]
  MIC: 6.25 µg/mL
[4]
  MIC: 6.25 µg/mL
[5]
  MIC: 25 µg/mL
[6]
  MIC: 1.56 µg/mL
[7]
  MIC: 12.5 µg/mL
[8]
  MIC: 3.12 µg/mL
[9]
  MIC: 6.25 µg/mL
[10]
  MIC: 1.56 µg/mL
[11]
  MBC: 6.25 µg/mL
[12]
  MBC: 12.5 µg/mL
[13]
  MBC: 6.25 µg/mL
[14]
  MBC: 12.5 µg/mL
[15]
  MBC: 25 µg/mL
[16]
  MBC: 3.12 µg/mL
[17]
  MBC: 12.5 µg/mL
[18]
  MBC: 6.25 µg/mL
[19]
  MBC: 6.25 µg/mL
